Where a chain is given by its changes, count along the chain named. In names and notes the source's numbering stands.
Tests used:
[1] = target: T1, p-Hydroxymandelate oxidase (Hmo) (Amycolatopsis orientalis, UniProt O52792); assay: crystal structure ([…] Å); format: binding
T1 construct: N-terminally His6-tagged protein

[2] = target: T2, p-Hydroxymandelate oxidase (Hmo) Y128F mutant (Amycolatopsis orientalis, UniProt O52792, Y128F); assay: crystal structure ([…] Å) and ITC; format: binding
T2 construct: N-terminally His6-tagged protein
T2 sequence (O52792 1-357 Y128F): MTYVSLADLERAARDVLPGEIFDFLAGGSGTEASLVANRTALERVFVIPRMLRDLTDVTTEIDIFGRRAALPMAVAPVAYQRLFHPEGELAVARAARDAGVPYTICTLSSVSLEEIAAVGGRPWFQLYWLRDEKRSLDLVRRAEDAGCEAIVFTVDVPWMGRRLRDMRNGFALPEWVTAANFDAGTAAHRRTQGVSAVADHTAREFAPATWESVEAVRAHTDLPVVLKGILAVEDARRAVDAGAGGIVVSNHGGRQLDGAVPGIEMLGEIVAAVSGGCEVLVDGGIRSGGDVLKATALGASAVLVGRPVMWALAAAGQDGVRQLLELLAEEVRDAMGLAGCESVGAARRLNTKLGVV

[3] = target: T1, p-Hydroxymandelate oxidase (Hmo); assay: crystal structure ([…] Å) and ITC; format: binding
[4] = target: T1, p-Hydroxymandelate oxidase (Hmo); assay: crystal structure ([…] Å); format: binding; remark: listed apart in the source
[5] = target: T2, p-Hydroxymandelate oxidase (Hmo) Y128F mutant; assay: crystal structure ([…] Å); format: binding
[6] = target: T1, p-Hydroxymandelate oxidase (Hmo); assay: crystal structure ([…] Å); format: binding; remark: listed apart in the source
[7] = target: T2, p-Hydroxymandelate oxidase (Hmo) Y128F mutant; assay: crystal structure ([…] Å); format: binding; remark: listed apart in the source
[8] = target: T2, p-Hydroxymandelate oxidase (Hmo) Y128F mutant; assay: crystal structure ([…] Å); format: binding; remark: listed apart in the source
purified protein = substrate: O=C(O)[C@@H](O)c1ccccc1; assay: purified protein; conditions: FMN anchored by Tyr128, Arg163, His252 and Arg255; α-H points towards N5 of the isoalloxazine ring
[9] = target: the molecule itself; assay: crystal structure; hanging-drop vapor diffusion at 20°C, 35% Tascimate, 0.1 M bis-Tris propane pH 7.0; space group I422, one chain in the asymmetric unit, dimer by a crystallographic twofold axis

Molecule: O=C(O)c1ccccc1 [BA, benzoate]
- crystal structure (1.40 Å) [1]: complex with benzoate, 5zzs

Molecule: O=C(O)C(=O)c1ccccc1 [BF, benzoylformate]
- Kd [2]: 1.4 mM
- Kd [3]: 1.9 mM

Molecule: O=C(O)[C@@H](O)c1ccc(O)cc1 [4HSMA, 4-hydroxy-(S)-mandelate]
- crystal structure (1.32 Å) [4]: complex with 4-hydroxy-(S)-mandelate, 5zzq

Molecule: C[C@H](C(=O)O)c1ccccc1 [SPPA, (S)-2-phenylpropionate]
- crystal structure (1.65 Å) [5]: complex with 2-phenylpropanoate, 6a0d
- crystal structure (1.60 Å) [6]: (S)-2-phenylpropionate (inhibitor) all adopt a ‘V’ conformation with the carboxyl group orthogonal to the plane of the phenyl ring

Molecule: O=C(O)[C@H](O)c1ccccc1 [RMA, (R)-mandelate]
- crystal structure (1.50 Å) [7]: When the Y128F mutant is bound by (R)-mandelate, the structural conformation is similar to that of (S)-mandelate

Molecule: O=C(O)C(=O)Cc1ccccc1 [PPY, phenylpyruvate]
- crystal structure (1.45 Å) [8]: The Y128F mutant liganded with phenylpyruvate, an oxidized product, when soaked with phenyllactate

B1: p-Hydroxymandelate oxidase (Hmo) from Amycolatopsis orientalis, wild type (enzyme)
chain: T2 sequence (O52792 1-357 Y128F)
notes: p-hydroxymandelate oxidase (Hmo, orf22), amplified from Amycolatopsis orientalis genomic DNA and subcloned into pET-28a(+) (NdeI/XhoI); one chain in the asymmetric unit, the dimer made by a crystallographic twofold axis; also called (S)-p-hydroxymandelate oxidase; WT Hmo; source: E. coli BL21(DE3), purified (Ni-NTA, size-exclusion chromatography)
- Km (purified protein): 160 µM
- stoichiometry N [9]: 2

B2: p-Hydroxymandelate oxidase (Hmo) Y128F mutant (enzyme, Amycolatopsis orientalis)
chain: T2 sequence (O52792 1-357 Y128F) with Y128F
notes: p-hydroxymandelate oxidase (Hmo, orf22) of Amycolatopsis orientalis in pET-28a(+), point mutant made by QuikChange on the wild-type hmo gene; Purified by the same protocol as wild-type Hmo; source: E. coli BL21(DE3), purified (Ni-NTA, size-exclusion chromatography)
- stoichiometry N [9]: 2

Source: PMC6677016, “Biochemical and structural explorations of α-hydroxyacid oxidases reveal a four-electron oxidative decarboxylation reaction” (Acta Crystallographica. Section D, Structural Biology, 2019)
